Columns and labels:
[1] = system: homed SKL cells; test: In vivo cell cycle analysis (BrdU) of homed SKL cells; set-up: species or system mouse; conditions: BrdU treated recipient mice, 16 hours, vs vehicle pulsed cells
Protocol: For in vitro cell cycle analysis, Lin^neg cells were treated with either 1 microMolar dmPGE2 or vehicle for 2 hours, washed, and cultured in Stem Cell Pro Media (Stem Cell Technologies) with rmSCF (50 ng/ml) (R&D Systems, Minneapolis, Minn.), rhFlt-3 and rhTPO (100 ng/ml each) (Immunex, Seattle, Wash.). After 20 hours, cells were stained for SKL, fixed and permeabilized, and stained with 7AAD (BD Biosciences, San Jose, Calif.). The proportion of SKL cells in S+G2/M phase was determined by measuring DNA content by FACS. […] The proportion of homed (CD45.1^+) SKL cells that were BrdU^+ was determined by FACS in individual mice.
To confirm the effect of dmPGE2 on enhancement of HSPC cell cycle observed in vitro, marrow cells were pulsed with dmPGE2 and injected into congenic mice treated with BrdU post-transplant, and the proportion of donor BrdU^+ SKL cells was determined 16 hours later.
CD45.1 Lineage^neg bone marrow cells were treated with dmPGE2 or vehicle and transplanted into lethally irradiated CD45.2 mice. […] Bone marrow was analyzed 16 hours later and the proportion of CD45.1^+, SKL cells that were BrdU^+ was analyzed by FACS analysis. […] Bone marrow was analyzed 16 hours later and the proportion of CD45.1^+, SKL cells that were BrdU^+ was analyzed by FACS analysis. […]

[2] = system: SKL cells; test: In vitro cell cycle analysis; type: cell-based, mouse
Protocol: For in vitro cell cycle analysis, Lin^neg cells were treated with either 1 microMolar dmPGE2 or vehicle for 2 hours, washed, and cultured in Stem Cell Pro Media (Stem Cell Technologies) with rmSCF (50 ng/ml) (R&D Systems, Minneapolis, Minn.), rhFlt-3 and rhTPO (100 ng/ml each) (Immunex, Seattle, Wash.). After 20 hours, cells were stained for SKL, fixed and permeabilized, and stained with 7AAD (BD Biosciences, San Jose, Calif.). The proportion of SKL cells in S+G2/M phase was determined by measuring DNA content by FACS. For in vivo cell cycle analysis, CD45.2 mice were lethally irradiated and transplanted with 5×10^6 Lin^neg cells from CD45.1 mice treated with either 1 microMolar dmPGE2 or vehicle for 2 hours. At the time of transplant, recipient mice received 1 milligram/mL BrdU (Sigma Aldrich, St. Louis, Mo.) in drinking water and 1 mg per mouse BrdU I.P. After 16 hours, recipient marrow was isolated, lineage depleted, and stained for CD45.1, SKL and BrdU. The proportion of homed (CD45.1^+) SKL cells that were BrdU^+ was determined by FACS in individual mice.
Survivin regulates HSPC entry into and progression through cell cycle. Furthermore, β-catenin, implicated in HSPC proliferation and self-renewal, lies downstream of EP receptor pathways. […] To test this hypothesis, the cell cycle status of SKL cells pulsed with dmPGE2 or vehicle in vitro was analyzed. Referring now to FIG. 6A, pulse-exposure to dmPGE2 increased DNA content in SKL cells, an indication of increased cell cycling (left panels, upper right quadrant). In 3 experiments, 60% more SKL cells were in S+G2/M phase of the cell cycle after dmPGE2 treatment compared to controls (FIG. 6A right panel).
Lineage^neg cells were treated with either vehicle or 1 microMolar dmPGE2 for 2 hours, washed and cultured in media with rmSCF, rhFlt3 and rhTpo. After 20 hours cells were stained for SKL and Hoechst-33342 and Pyronin-Y. The proportion of SKL cells in cell cycle were measured by FACS. Referring now to FIG. 12, representative flow plot showing cell cycle distribution of gated SKL cells and combined data for fold increase in cell cycle for dmPGE2-treated cells compared to vehicle control from 3 experiments, Mean±SEM, n=9 mice, each assayed individually. […]
Referring now to FIG. 8, table summarizing data collected using Lin^neg bone marrow cells treated with either 1 microMolar dmPGE2 or vehicle for 2 hours and cultured in the presence of growth factors (50 ng/ml rmSCF, 100 ng/ml each of rhFlt-3 and rhTPO) for 20 hours, were stained for SLAM SKL, Hoechst-33342 and Pyronin-Y and the proportion of SLAM SKL cells in G0, G1, S and G2/M phase of the cell cycle determined by quantitation of the DNA and the RNA content by FACS. Data are Mean±SEM for n=9 mice, each assayed individually. ^(b)Percentage of cells in G1+S+G2M; Combined data for n=9 mice. ^(*^)P<0.05 compared to vehicle control.

[3] = system: Survivin in CD34+ UCB cells; test: Intracellular Survivin by FACS, human CD34+ UCB cells; type: cell-based; conditions: 24 hours post-pulse, vs control
From the text: All antibodies were purchased from BD Biosciences unless otherwise noted. For detection and sorting of murine KL and SKL cells, streptavidin conjugated with PE-Cy7 (to stain for biotinylated MACS lineage antibodies (Miltenyi Biotech, Auburn, Calif.)), c-kit-APC, Sca-1-PE or APC-Cy7, CD45. 1-PE and CD45.2-FITC were used. UCB CD34^+ cells were detected using anti-human-CD34-APC. For multilineage analysis, APC-Cy7-Mac-1, PE-Cy7-B-220 and APC-CD3 were used. EP receptors were detected with anti EP1, EP2, EP3 and EP4 rabbit IgG (Cayman Chemicals) and secondary staining with FITC-goat-anti-rabbit IgG (Southern Biotech, Birmingham, Ala.). CXCR4 expression was analyzed using streptavidin-PECy7, c-kit-APC, Sca-1-APC-Cy7, and CXCR4-PE. Apoptosis was measured with FITC-Annexin-V. For Survivin and active caspase-3 detection, cells were permeabilized and fixed using the CytoFix/CytoPerm kit (BD) and stained with anti-active-caspase-3-FITC Flow Kit (BD) or Survivin-PE (R&D Systems).
Expression of EP receptors, CXCR4 and Survivin Replicate Lin^neg cell samples from CD45.2 mice were stained for SKL and each of the EP receptors and surface receptor expression on KL and SKL cells determined by FACS. […] Replicate cells were stained for CD34 and each of the EP receptors and surface expression determined by FACS. […]

SMILES | donor (homed) SKL cells in S+G2/M phase [1] [fold] | cell cycle rate of CD150+48− (SLAM) SKL cells ([2]; in vitro, 1 microMolar 2 hours, 20 hours culture) | proportion of SKL cells actively in cell cycle ([2]; in vitro, within 24 hours post-treatment) | increase in proportion of HSPC in cell cycle / HSPC cell cycle activity ([2]; pulse exposure) [fold] | cell cycle rate of KL or Lin neg cells ([2]; in vitro) | more SKL cells in S+G2/M phase of the cell cycle ([2]; in vitro, 3 experiments, vs controls) [%] | increase in intracellular Survivin, CD34+ UCB cells [3] [fold]
CCCCC[C@H](O)/C=C/[C@H]1[C@H](O)CC(=O)[C@@H]1C/C=C\CCCC(=O)O [PGE2, Prostaglandin E2] | ~2 | Increases the Cell Cycle Rate | increase | ~2 |  |  | 
CCCCC(C)(C)[C@H](O)/C=C/[C@H]1[C@H](O)CC(=O)[C@@H]1C/C=C\CCCC(=O)O [dmPGE2, 16,16-dimethyl prostaglandin E2] | ~2 |  |  |  | No significant effect | 60 | 2.4

Source: patent US9107909B2, “Materials and methods to enhance hematopoietic stem cells engraftment procedures” (priority 2008, dated 2015)
